Results on four compounds are retold here after US20240336654A1, “ANTIMICROBIAL PEPTIDOMIMETICS” (SPEXIS AG, priority 2021, published 2024).

Where a SMILES comes first, the peptide text is derived from it. Bridges are numbered along the chain shown (N, C = ends). [ ]: non-standard residue; d: D form. The star is where a group is joined. Val(Nα-amidino) = CC(C)[C@H](NC(=N)N)C(=O)*; Pro(cis-4-F) = O=C(O)[C@@H]1C[C@H](F)CN1; Hyp = O=C(O)[C@@H]1C[C@@H](O)CN1; Pen = CC(C)(S)[C@H](N)C(=O)O; dDab = NCC[C@@H](N)C(=O)O; Dab = NCC[C@H](N)C(=O)O Bounds are passed on as bounds.

Type in all cases: cell-based
Data set [1] concerns Escherichia coli MCR-1 Af 45. Particulars: MCR-1 Af 45. The method, boiled down: (§1)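 CLSI broth microdilution, slightly modified: cation-adjusted Mueller-Hinton II broth with about 5×10^5 CFU/mL from a 0.5 McFarland suspension, and two-fold serial peptide dilutions with Polysorbate 80 at 0.002% final. MIC (μg/mL) was the lowest concentration with no visible growth after 18-20 hours at 35° C.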

The subject of data set [2] is Escherichia coli ATCC 25922. The following applies: ATCC 25922. The method, boiled down:
as §1

Data set [3] has as its system Klebsiella pneumoniae SSI3010. The following applies: SSI3010. The method, boiled down:
as §1

Data set [4] concerns human red blood cells (hRBC). The following applies: red cells of human, 1 h, 200 μg/mL. The method, boiled down: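 Percent hemolysis derived from OD540 of supernatants relative to full lysis by 2.5% Triton X-100 (PBS baseline). Washed fresh human erythrocytes (20% v/v) were exposed to 200 μg/mL peptide for 1 h at 37 °C with shaking.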

For `CC[C@H](C)[C@H](NC(=O)[C@@H]1C[C@@H](O)CN1C(=O)[C@@H](NC(=N)N)C(C)C)C(=O)N[C@@H]1C(=O)N[C@@H](Cc2ccc(O)cc2)C(=O)N[C@@H]([C@@H](C)O)C(=O)N[C@@H](CC(N)=O)C(=O)N[C@@H](CCCNC(=N)N)C(=O)N[C@@H](CCN)C(=O)N[C@@H]([C@@H](C)O)C(=O)N[C@H](CCN)C(=O)N[C@@H](CCN)C(=O)N[C@@H](CCN)C(=O)N[C@@H](CCN)C(=O)N[C@H](C(=O)N[C@@H](Cc2ccc(O)cc2)C(=O)O)CSSC1(C)C` [Example 123, Gua-Val-Hyp-Ile-Pen-Tyr-Thr-Asn-Arg-Dab-Thr-^DDab-Dab-Dab-Dab-Cys-Tyr] ({Val(Nα-amidino)}-[Hyp]I[Pen]YTNR[Dab]T[dDab][Dab][Dab][Dab]CY-OH; disulfide 3-14), the “Escherichia coli MCR-1 Af45 MIC” value in data set [1] came out at 0.03125 µg/mL. Besides, the “Escherichia coli ATCC 25922 MIC” value in data set [2] turned out to be 0.0625 µg/mL. The “Klebsiella pneumoniae SSI3010 MIC” value in data set [3] was 0.0625 µg/mL. Besides, the “Hemolysis at 0.2 g/L” value in data set [4] is recorded as less than 1%.

For `CC[C@H](C)[C@H](NC(=O)[C@@H]1C[C@@H](O)CN1C(=O)[C@@H](N)C(C)C)C(=O)N[C@@H]1C(=O)N[C@@H](Cc2ccc(O)cc2)C(=O)N[C@@H](CCN)C(=O)N[C@@H](CC(N)=O)C(=O)N[C@@H](CCCNC(=N)N)C(=O)N[C@@H](CCN)C(=O)N[C@@H]([C@@H](C)O)C(=O)N[C@H](CCN)C(=O)N[C@@H](CCCCN)C(=O)N[C@@H]([C@@H](C)O)C(=O)N[C@@H](CC(N)=O)C(=O)N[C@H](C(=O)N[C@@H](Cc2ccc(O)cc2)C(=O)O)CSSC1(C)C` [Example 51, Val-Hyp-Ile-Pen-Tyr-Dab-Asn-Arg-Dab-Thr-^DDab-Lys-Thr-Asn-Cys-Tyr] (H-V[Hyp]I[Pen]Y[Dab]NR[Dab]T[dDab]KTNCY-OH; disulfide 4-15), in data set [1], the “Escherichia coli MCR-1 Af45 MIC” value is 0.25 µg/mL. Also, in data set [2], the “Escherichia coli ATCC 25922 MIC” value came out at 0.25 µg/mL. In data set [3], the “Klebsiella pneumoniae SSI3010 MIC” value is 0.5 µg/mL. The “Hemolysis at 0.2 g/L” value in data set [4] is recorded as less than 1%.

As for `CC[C@H](C)[C@H](NC(=O)[C@@H]1C[C@H](F)CN1C(=O)[C@@H](N)C(C)C)C(=O)N[C@@H]1C(=O)N[C@@H](Cc2ccc(O)cc2)C(=O)N[C@@H]([C@@H](C)O)C(=O)N[C@@H](CC(N)=O)C(=O)N[C@@H](CCCNC(=N)N)C(=O)N[C@@H](CCN)C(=O)N[C@@H]([C@@H](C)O)C(=O)N[C@H](CCN)C(=O)N[C@@H](CCCCN)C(=O)N[C@@H](CCN)C(=O)N[C@@H](CCN)C(=O)N[C@H](C(=O)N[C@@H](Cc2ccc(O)cc2)C(=O)O)CSSC1(C)C` [Example 7, Val-Pro((4S)F)-Ile-Pen-Tyr-Thr-Asn-Arg-Dab-Thr-^DDab-Lys-Dab-Dab-Cys-Tyr] (H-V[Pro(cis-4-F)]I[Pen]YTNR[Dab]T[dDab]K[Dab][Dab]CY-OH; disulfide 4-15), the “Escherichia coli MCR-1 Af45 MIC” value in data set [1] was found to be 0.125 µg/mL. Also, the “Escherichia coli ATCC 25922 MIC” value in data set [2] worked out at 0.125 µg/mL. For the same compound, in data set [3], the “Klebsiella pneumoniae SSI3010 MIC” value was 0.25 µg/mL. For the same compound, in data set [4], the “Hemolysis at 0.2 g/L” value is less than 1%.

Regarding `CC[C@H](C)[C@H](NC(=O)[C@@H]1C[C@@H](O)CN1C(=O)[C@@H](N)C(C)C)C(=O)N[C@@H]1C(=O)N[C@@H](Cc2ccc(O)cc2)C(=O)N[C@@H](CCN)C(=O)N[C@@H](CC(N)=O)C(=O)N[C@@H](CCCNC(=N)N)C(=O)N[C@@H](CCN)C(=O)N[C@@H]([C@@H](C)O)C(=O)N[C@H](CCN)C(=O)N[C@@H](CCCCN)C(=O)N[C@@H](CCN)C(=O)N[C@@H](CO)C(=O)N[C@H](C(=O)N[C@@H](Cc2ccc(O)cc2)C(=O)O)CSSC1(C)C` [Example 56, Val-Hyp-Ile-Pen-Tyr-Dab-Asn-Arg-Dab-Thr-^DDab-Lys-Dab-Ser-Cys-Tyr] (H-V[Hyp]I[Pen]Y[Dab]NR[Dab]T[dDab]K[Dab]SCY-OH; disulfide 4-15), the “Escherichia coli MCR-1 Af45 MIC” value in data set [1] was determined as 0.125 µg/mL. For the same compound, the “Escherichia coli ATCC 25922 MIC” value in data set [2] is 0.25 µg/mL. Also, the “Klebsiella pneumoniae SSI3010 MIC” value in data set [3] is 0.25 µg/mL. The “Hemolysis at 0.2 g/L” value in data set [4] is given as less than 1%.
